Patent US6387954B1, “Alkenyl sulphonamide derivatives” (Eli Lilly and Company, priority 1998, dated 2002)

Target: T1, human GluR4B receptor (Homo sapiens, UniProt P48058)
T1 construct: expressed in transfected cells; host or cells: HEK293
Test: potentiation of agonist-induced excitability of GluR4B expressed in HEK 293 cells
Format: cell-based
Conditions: human GluR4B receptor expressed in HEK 293 cells
From the text: The ability of compounds of formula I to potentiate glutamate receptor-mediated response may be determined using fluorescent calcium indicator dyes (Molecular Probes, Eugene, Oregon, Fluo-3) and by measuring glutamate-evoked […] of calcium into GluR4 transfected HEK293 cells, as described in more detail below.
In one test, 96 well plates containing confluent monolayers of HEK cells stably expressing human GluR4B (obtained as described in European Patent Application Publication Number EP-A1-583917) are prepared. The tissue culture medium in the wells is then discarded, and the wells are each washed once with 200 μl of buffer (glucose, 10 mM, sodium chloride, 138 mM, magnesium chloride, 1 mM, potassium chloride, 5 mM, calcium chloride, 5 mM, N-[2-hydroxyethyl]-piperazine-N-[2-ethanesulfonic acid], 10 mM, to pH 7.1 to 7.3). […]
Each test is then performed as follows. […] A second fluorescent reading is taken after 5 minutes incubation. 15 μl of 400 μM glutamate solution is then added to each well (final glutamate concentration 100 μM), and a third reading is taken. The activities of test compounds and cyclothiazide solutions are determined by subtracting the second from the third reading (fluorescence due to addition of glutamate in the presence or absence of test compound or cyclothiazide) and are expressed relative to enhance fluorescence produced by 100 μM cyclothiazide.

T1 sequence (P48058 21-902): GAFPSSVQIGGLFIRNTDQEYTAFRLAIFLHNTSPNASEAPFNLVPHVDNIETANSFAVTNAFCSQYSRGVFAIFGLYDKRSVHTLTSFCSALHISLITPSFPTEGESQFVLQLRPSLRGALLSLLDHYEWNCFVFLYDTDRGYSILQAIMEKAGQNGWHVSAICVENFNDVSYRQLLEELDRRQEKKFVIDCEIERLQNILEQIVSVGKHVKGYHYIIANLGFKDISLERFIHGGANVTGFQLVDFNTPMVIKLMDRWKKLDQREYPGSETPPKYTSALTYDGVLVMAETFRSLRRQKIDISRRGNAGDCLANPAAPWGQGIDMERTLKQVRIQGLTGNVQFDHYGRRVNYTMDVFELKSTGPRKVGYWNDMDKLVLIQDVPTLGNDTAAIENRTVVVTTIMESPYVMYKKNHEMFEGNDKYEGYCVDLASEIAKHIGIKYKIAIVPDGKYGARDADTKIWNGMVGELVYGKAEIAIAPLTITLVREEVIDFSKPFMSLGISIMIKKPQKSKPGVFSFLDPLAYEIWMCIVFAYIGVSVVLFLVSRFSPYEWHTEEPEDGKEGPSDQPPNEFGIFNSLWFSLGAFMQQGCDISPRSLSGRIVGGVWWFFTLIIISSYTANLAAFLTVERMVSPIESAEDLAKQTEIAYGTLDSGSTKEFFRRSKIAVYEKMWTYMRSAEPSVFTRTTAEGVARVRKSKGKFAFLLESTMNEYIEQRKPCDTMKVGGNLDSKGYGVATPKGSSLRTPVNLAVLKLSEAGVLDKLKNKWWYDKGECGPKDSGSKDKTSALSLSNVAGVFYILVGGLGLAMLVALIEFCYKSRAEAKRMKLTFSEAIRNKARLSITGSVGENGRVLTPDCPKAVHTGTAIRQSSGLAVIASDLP

## NS(=O)(=O)c1cc2c(cc1Cl)NC(C1CC3C=CC1C3)NS2(=O)=O (stereo not shown) [cyclothiazide]
  potentiation of agonist-induced excitability: potentiate agonist-induced excitability
